Data from article PMC7589326, “Synthesis and Pharmacological Evaluation of Fluorinated Quinoxaline‐Based κ‐Opioid Receptor (KOR) Agonists Designed for PET Studies” (Chemmedchem, 2020).
Read-outs that look alike come from different tables or passages of the source.

Key:
[1] = molecular target: T1, σ1 receptor (Cavia porcellus, UniProt Q60492); conditions: cited from earlier work
T1 construct: Membrane preparations from guinea pig brain were used in the MOR and σ1 assay; tissue Harlan-Winkelmann, Borchen, Germany; host or cells: guinea pig brain membrane homogenate
T1 sequence (Q60492 whole entry): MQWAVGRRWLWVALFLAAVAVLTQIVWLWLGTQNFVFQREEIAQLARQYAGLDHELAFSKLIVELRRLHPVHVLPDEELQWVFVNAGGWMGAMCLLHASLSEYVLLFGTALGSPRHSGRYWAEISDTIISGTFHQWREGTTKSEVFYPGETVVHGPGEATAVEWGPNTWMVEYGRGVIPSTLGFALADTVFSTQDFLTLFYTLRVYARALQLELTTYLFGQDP

[2] = molecular target: T2, MOR (Cavia porcellus, UniProt A0ACM8Q262); conditions: cited from earlier work
T2 sequence (A0ACM8Q262 1-400): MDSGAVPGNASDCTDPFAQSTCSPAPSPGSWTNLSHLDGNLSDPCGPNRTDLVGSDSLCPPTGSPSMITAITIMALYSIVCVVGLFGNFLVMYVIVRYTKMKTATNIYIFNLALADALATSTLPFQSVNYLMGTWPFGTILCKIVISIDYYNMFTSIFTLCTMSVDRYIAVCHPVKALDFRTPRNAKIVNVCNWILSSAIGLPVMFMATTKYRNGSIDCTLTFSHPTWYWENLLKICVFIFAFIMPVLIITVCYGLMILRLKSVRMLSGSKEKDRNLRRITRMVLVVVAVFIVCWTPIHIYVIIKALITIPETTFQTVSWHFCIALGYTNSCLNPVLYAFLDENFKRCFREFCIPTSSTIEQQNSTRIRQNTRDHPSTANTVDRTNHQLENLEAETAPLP

[3] = molecular target: T3, σ2 receptor (Rattus norvegicus, UniProt Q5U3Y7); conditions: cited from earlier work
T3 construct: tissue Harlan-Winkelmann, Borchen, Germany; host or cells: rat liver membrane homogenate
T3 sequence (Q5U3Y7 1-176): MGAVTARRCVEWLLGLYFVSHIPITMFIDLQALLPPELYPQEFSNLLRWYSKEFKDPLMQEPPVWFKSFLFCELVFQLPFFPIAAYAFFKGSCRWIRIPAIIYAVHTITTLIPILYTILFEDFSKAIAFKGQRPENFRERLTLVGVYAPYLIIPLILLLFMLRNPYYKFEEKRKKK

[4] = molecular target: T2, MOR; experiment: biochemical; assay type: binding, guinea pig; conditions: for inhibition at 1 µM: read-out: % inhibition at 1 μM MOR [3H]DAMGO
[5] = Distribution coefficient logD7.4, shake flask method with radioligand; assay type: physicochemical
Description: The distribution coefficient at pH 7.4 (logD7.4) was determined by a shake flask method using the radioligand [^18F]‐2. After distribution of [^18F]‐2 between n‐octanol and phosphate buffered saline (pH 7.4) layers, the radioactivity in both layers was determined and set in ratio. According to this procedure, a logD7.4 value of 1.37±0.06 was determined indicating a moderate lipophilic compound, which should be able to penetrate into the central nervous system.
The lipophilicity of radioligands [^18F]‐2 and [^18F]‐14c was assessed by determination of the water n‐octan‐1‐ol distribution coefficient (logD) following a published procedure.57 In brief, approximately 3.2 MBq of radioligand [^18F]‐2 and approximately 0.3 MBq of radiotracer [^18F]‐14c, respectively, were mixed with equal amounts (0.6 mL) of phosphate buffered saline (PBS, pH 7.4) and n‐octan‐1‐ol. The resulting biphasic system was mixed vigorously for 3 min at room temperature and subsequently, the tubes were centrifuged (≥5 min). Then 400 μL of the n‐octan‐1‐ol layer was separated and 400 μL of PBS were added. The mixture was mixed vigorously for 10 min at room temperature followed by centrifugation of the tubes for≥5 min. Two samples of 100 μL of each layer were counted in a γ‐counter (2480 Automatic Gamma Counter Wizard^2, Perkin‐Elmer). The distribution coefficient was determined by calculating the ratio cpm(n‐octan‐1‐ol)/cpm(PBS) and expressed as logD 7.4 (log(cpmn‐octanol/cpmPBS)). Three independent experiments were performed in duplicate and data were provided as mean values ±standard deviation.

[6] = In vivo biodistribution, small animal PET in C57BL/6 mice; parameters: species or system mouse
Description: Next, the distribution of the PET tracer [^18F]‐2 in mice was investigated. For this purpose, [^18F]‐2 was injected into 15‐week‐old C57BL/6 mice. […] Already after 2 min the radioactivity was almost completely found in liver, kidneys and bladder. In the liver, the radioactivity remained almost constant over the period of 90 min (Figure 6). Besides a transient local increase in radioactivity in the submandibular and harderian glands, no significant accumulation of [^18F]‐2 in non‐excreting organs such as heart, lung and muscles as indicator for unspecific binding could be detected.
Adult C57BL/6 mice (n=2 male, 15 weeks, 28 g for [^18F]‐2; n=2, male, 10 weeks, 25 g for [^18F]‐14c) were anesthetized by isoflurane/O2 and one lateral tail vein was cannulated BY using a 27 G needle connected to 15 cm polyethylene catheter tubing. Radiotracers (∼500 kBq/g bodyweight, 15 MBq) were injected as a bolus (50 μL compound flushed with 100 μL saline) via the tail vein and subsequent PET scanning was performed.
Small Animal PET Scanning. PET experiments were carried out using a submillimeter high resolution (0.7 mm full width at half‐maximum) small animal scanner (32 module quadHIDAC, Oxford Positron Systems Ltd., Oxford, UK) with uniform spatial resolution (<1 mm) over a large cylindrical field (165 mm diameter, 280 mm axial length). List‐mode data were acquired for 90 min and reconstructed into dynamic time frames using an iterative reconstruction algorithm. Subsequently, the scanning bed was transferred to the computed tomography (CT) scanner (Inveon, Siemens Medical Solutions, U.S.), and a CT acquisition with a spatial resolution of 80 μm was performed for each mouse. Reconstructed image data sets were coregistered based on extrinsic markers attached to the multimodal scanning bed and the in‐house developed image analysis software MEDgical. Three‐dimensional volumes of interest (VOIs) were defined over the respective organs in CT data sets, transferred to the coregistered PET data, and analyzed quantitatively. Regional uptake was calculated as percentage of injected dose by dividing counts per milliliter in the VOI by total counts in the mouse multiplied by 100 (%ID/mL).

[7] = Stability in mouse serum (radio-HPLC); assay type: in vitro ADME; conditions: 90 min, 37 °C
Description: (§1) Enzymes present in blood serum could be able to transform the radioactive PET tracer [^18F]‐2. Therefore, the blood serum stability of [^18F]‐2 was investigated before testing the tracer in vivo. [^18F]‐2 was incubated with mouse and human serum for 90 min at 37 °C.
(§2) The serum stability of radioligands [^18F]‐2 and [^18F]‐14c was evaluated by incubation in mouse or human serum at 37 °C for up to 90 min. An aliquot of formulated [^18F]‐2 or [^18F]‐14c (20 μL, ca. 6.6 MBq and ca.10 MBq, respectively) was added to a sample of mouse serum (200 μL) or human serum (200 μL), and the mixtures were incubated at 37 °C. Samples of 20 μL each were taken after periods of 10, 30, 60 and 90 min and ice‐cold DNA‐grade CH3CN (100 μL) were added. After centrifugation for ≥5 min, the supernatant was analyzed by analytical radio‐HPLC B, method B.

[8] = Stability in human serum (radio-HPLC); assay type: in vitro ADME; conditions: 90 min, 37 °C
Description: as §1, §2

[9] = molecular target: T4, DOR (Rattus norvegicus, UniProt P33533); experiment: biochemical; assay type: binding; conditions: for inhibition at 1 µM: read-out: % inhibition at 1 μM DOR [3H]DPDPE
T4 construct: preparations from rat brain were employed in the DOR assay; tissue Harlan-Winkelmann, Borchen, Germany; host or cells: rat brain (Sprague Dawley) membrane homogenate
T4 sequence (P33533 whole entry): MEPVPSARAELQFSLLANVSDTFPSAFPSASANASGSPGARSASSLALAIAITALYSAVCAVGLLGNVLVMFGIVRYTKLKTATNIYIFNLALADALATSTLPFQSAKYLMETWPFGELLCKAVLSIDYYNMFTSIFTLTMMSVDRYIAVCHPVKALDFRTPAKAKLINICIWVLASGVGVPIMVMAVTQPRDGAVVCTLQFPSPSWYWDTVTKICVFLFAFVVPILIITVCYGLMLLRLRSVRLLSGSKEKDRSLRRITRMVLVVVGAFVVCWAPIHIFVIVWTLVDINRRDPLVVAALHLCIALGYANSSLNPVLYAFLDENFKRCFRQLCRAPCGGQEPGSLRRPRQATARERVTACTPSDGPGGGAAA

[10] = molecular target: T1, σ1 receptor; experiment: biochemical; assay type: binding, guinea pig; conditions: read-out: % inhibition at 1 μM σ1 (+)-[3H]pentazocine
[11] = molecular target: T5, KOR (Cavia porcellus, UniProt P41144); experiment: biochemical; assay type: binding, guinea pig
T5 construct: The thawed guinea pig brain membrane preparation (about 100 μg of the protein) was incubated; tissue Harlan-Winkelmann, Borchen, Germany; host or cells: guinea pig brain membrane homogenate
T5 sequence (P41144 whole entry): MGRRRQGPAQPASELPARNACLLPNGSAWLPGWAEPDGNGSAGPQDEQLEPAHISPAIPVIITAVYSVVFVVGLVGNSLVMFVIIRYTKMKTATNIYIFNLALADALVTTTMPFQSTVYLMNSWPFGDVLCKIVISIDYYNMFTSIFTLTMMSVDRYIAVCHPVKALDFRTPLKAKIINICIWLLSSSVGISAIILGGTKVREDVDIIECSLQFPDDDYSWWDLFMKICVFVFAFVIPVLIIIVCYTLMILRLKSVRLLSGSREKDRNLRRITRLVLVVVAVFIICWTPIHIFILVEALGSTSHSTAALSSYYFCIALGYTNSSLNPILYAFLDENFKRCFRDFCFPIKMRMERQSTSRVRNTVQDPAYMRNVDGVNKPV

[12] = molecular target: T3, σ2 receptor; experiment: biochemical; assay type: binding; conditions: for inhibition at 1 µM: read-out: % inhibition at 1 μM σ2 [3H]DTG
[13] = tested on: mouse T cells (wild-type); assay type: cell-based
[14] = tested on: human T cells; assay type: cell-based
[15] = tested on: mouse DCs (wild-type); assay type: cell-based
[16] = tested on: DCs from KOR-deficient mice; assay type: cell-based, mouse
[17] = tested on: T cells from KOR-deficient mice; assay type: cell-based, mouse
[18] = tested on: human DCs; assay type: cell-based
[19] = molecular target: T6, KOR (Homo sapiens, UniProt P41145); experiment: cell-based; parameters: expressed in transfected cells; host or cells: HTLA cells (stably expressing TEV-fused β-arrestin2)
Target sequence in this assay (P41145 whole entry, the tested form may be a part): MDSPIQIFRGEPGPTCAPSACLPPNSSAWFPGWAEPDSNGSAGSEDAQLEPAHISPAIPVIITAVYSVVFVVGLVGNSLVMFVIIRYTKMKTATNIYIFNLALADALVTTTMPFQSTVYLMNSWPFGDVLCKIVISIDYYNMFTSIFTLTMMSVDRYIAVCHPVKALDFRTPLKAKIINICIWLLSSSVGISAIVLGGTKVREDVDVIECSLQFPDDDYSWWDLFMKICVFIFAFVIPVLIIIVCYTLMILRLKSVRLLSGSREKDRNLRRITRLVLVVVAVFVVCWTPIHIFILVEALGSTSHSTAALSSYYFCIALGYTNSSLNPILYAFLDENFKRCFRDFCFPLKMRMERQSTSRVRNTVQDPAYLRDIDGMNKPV
Target sequence in this assay (P32121 whole entry partner, the tested form may be a part): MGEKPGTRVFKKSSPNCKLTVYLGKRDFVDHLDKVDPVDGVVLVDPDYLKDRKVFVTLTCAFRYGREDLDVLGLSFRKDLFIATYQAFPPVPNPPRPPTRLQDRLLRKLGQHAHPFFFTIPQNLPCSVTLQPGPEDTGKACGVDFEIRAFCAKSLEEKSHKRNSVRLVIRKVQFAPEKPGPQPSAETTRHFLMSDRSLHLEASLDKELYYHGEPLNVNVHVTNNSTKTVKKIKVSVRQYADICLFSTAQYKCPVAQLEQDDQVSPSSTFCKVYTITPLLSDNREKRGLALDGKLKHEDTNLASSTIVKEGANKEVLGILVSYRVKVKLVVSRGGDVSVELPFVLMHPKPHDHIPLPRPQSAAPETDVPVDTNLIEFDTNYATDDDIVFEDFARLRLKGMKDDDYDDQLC

[20] = molecular target: T6, KOR; experiment: cell-based; parameters: expressed in transfected cells; host or cells: HEK 293T (ATCC CRL-11268)
Target sequence in this assay (P41145 whole entry, the tested form may be a part): as the sequence (P41145 whole entry, the tested form may be a part) above

## CC(C)(C)OC(=O)N1CCN(C(=O)Cc2ccc(Cl)c(Cl)c2)[C@@H]2[C@@H](N3CCCC3)CCC[C@@H]21 [1a]
[1]
  % inhibition at 1 μM σ1 (+)-[3H]pentazocine: 12%
[2]; read-out: Ki MOR [3H]DAMGO
  Ki: 260 nM
[3]
  % inhibition at 1 μM σ2 [3H]DTG: 16%

## DAMGO [reference compound]
[4]; read-out: Kd-value of radioligand, MOR assay
  Kd: 0.57 nM

## COC(=O)N1CCN(C(=O)Cc2ccc(Cl)c(Cl)c2)[C@@H]2[C@@H](N3CC[C@@H]([18F])C3)CCC[C@@H]21 [[^18F]‐14c, Methyl (4aR,5S,8aS)‐ and (4aS,5R,8aR)‐4‐[2‐(3,4‐dichlorophenyl)acetyl]‐5‐[(R)‐3‐[^18F]fluoropyrrolidin‐1‐yl]‐3,4,4 a,5,6,7,8,8 a‐octahydroquinoxaline‐1(2H)‐carboxylate]
[5]; n-octanol / PBS pH 7.4
  concentration in the n-octanol layer relative to [18F]-2: 15 fold
[5]; n-octanol / phosphate buffered saline pH 7.4
  logD: 2.54 ± 0.22
[6]; 90 min after injection
  residual radioactivity in organs ex vivo (γ-counter): mainly present in the excretion organs and in the urine
[6]; C57BL/6 mice, intravenous injection
  radioactivity in the bones / defluorination: fast defluorination
[6]; C57BL/6 mice, intravenous injection, hepatic and renal pathways
  clearance from the body: fast
[7]
  stability in mouse serum: high stability
[8]
  stability in human serum: high stability

## CC(C)(C)OC(=O)N1CCN(C(=O)Cc2ccc(Cl)c(Cl)c2)[C@@H]2[C@@H](N3CC[C@H](O)C3)CCC[C@@H]21 (mixture of isomers) [12a, tert‐Butyl (4aR,5S,8aS)‐ and (4aS,5R,8aR)‐4‐[2‐(3,4‐dichlorophenyl)acetyl]‐5‐[(S)‐3‐hydroxypyrrolidin‐1‐yl]‐3,4,4 a,5,6,7,8,8 a‐octahydroquinoxaline‐1(2H)‐carboxylate]
[9]
  inhibition at 1 µM: 5%
[10]
  inhibition at 1 µM: 0%
[4]
  inhibition at 1 µM: 9%
[11]; Ki±SEM KOR [3H]U-69,593
  Ki: 16 ± 2 nM
[12]
  inhibition at 1 µM: 0%

## COC(=O)N1CCN(C(=O)Cc2ccc(Cl)c(Cl)c2)[C@@H]2[C@@H](N3CC[C@@H](F)C3)CCC[C@@H]21 (mixture of isomers) [14c, Methyl (4aR,5S,8aS)‐ and (4aS,5R,8aR)‐4‐[2‐(3,4‐dichlorophenyl)acetyl]‐5‐[(R)‐3‐fluoropyrrolidin‐1‐yl]‐3,4,4 a,5,6,7,8,8 a‐ octahydroquinoxaline‐1(2H)‐carboxylate]
[13]
  anti-inflammatory cytokine IL-10 in cell cultures: significant upregulation
  expression of surface activation markers CD25, CD44 and CD69 and IFN-γ production: significantly reducing
[9]
  inhibition at 1 µM: 12%
[14]
  IL-10 induction: only slightly but not significantly induced
  expression of surface activation markers CD25 and CD69 and IFN-γ secretion: significantly reduce
[10]
  inhibition at 1 µM: 8%
[15]
  expression of maturation marker CD11c and IFN-γ production: significantly reduced
[16]
  anti-inflammatory effect (CD11c, IFN-γ) in DCs from KOR-deficient mice: completely abrogated
[4]
  inhibition at 1 µM: 0%
[11]
  Ki: 0.82 ± 0.69 nM
  selectivity over the related MOR, DOR and σ receptors: more than 1000 fold
[17]
  expression of activation markers or cytokine release in T cells from KOR-deficient mice: did not result in an altered expression
[12]
  Ki: 962 nM
[18]
  expression of CD11c and production of IFN-γ in human DCs: reduced

## COC(=O)N1CCN(C(=O)Cc2ccc(Cl)c(Cl)c2)[C@@H]2[C@@H](N3CC[C@H](O)C3)CCC[C@@H]21 (mixture of isomers) [12c, Methyl (4aR,5S,8aS)‐ and (4aS,5R,8aR)‐4‐[2‐(3,4‐dichlorophenyl)acetyl]‐5‐[(S)‐3‐hydroxypyrrolidin‐1‐yl]‐3,4,4 a,5,6,7,8,8 a‐octahydroquinoxaline‐1(2H)‐carboxylate]
[13]
  expression of surface activation markers CD25, CD44 and CD69 and IFN-γ production: did not modulate the activation status
[9]
  Ki: 693 nM
[19]
  EC50: 8.8 nM
[19]; HTLA, read-out: β-Arrestin-2 E max
  Emax: 82%
[10]
  inhibition at 1 µM: 0%
[15]
  expression of maturation marker CD11c and IFN-γ production: significantly reduced
[16]
  anti-inflammatory effect (CD11c, IFN-γ) in DCs from KOR-deficient mice: completely abrogated
[4]
  inhibition at 1 µM: 5%
[11]; Ki±SEM KOR [3H]U-69,593
  Ki: 9.2 ± 6 nM
[20]
  EC50: 0.19 nM
[20]; HEK-293T, read-out: cAMP E max
  Emax: 100%
[12]
  inhibition at 1 µM: 5%
[18]
  expression of CD11c and production of IFN-γ in human DCs: reduced

## COC(=O)N1CCN(C(=O)Cc2ccc(Cl)c(Cl)c2)[C@@H]2[C@@H](N3CCCC3)CCC[C@@H]21 [1c]
[1]
  % inhibition at 1 μM σ1 (+)-[3H]pentazocine: 0%
[2]
  % inhibition at 1 μM MOR [3H]DAMGO: 0%
[3]
  % inhibition at 1 μM σ2 [3H]DTG: 8%
